The structures appear in SMILES notation.

One assay deals with IMR90-1 human iPSCs. Nature of the assay: Immunostaining of IMR90-1 cardiac spheroids. It counts as cell-based. The note with it: day 12.5. How it is done:
The iPSC spheroids and the iPSC-derived Cardiac spheroids were fixed in 4% PFA in 1×PBS at 4° C. overnight. The fixed spheroids were incubated sequentially in 10% and 15% sucrose solutions in saline for 4 h, respectively. Afterward, the spheroids were put in a plastic box and embedded in OCT for cryosectioning. Slices of the spheroids of 10 μm thick were obtained by cutting the frozen sample on a Leica cryostat platform and then immediately attached onto the Leica Apex high adhesive glass slides.
For immunostaining, the slides were gently rinsed twice with 1×PBS to remove the OCT and then incubated with 0.1% Tween-20 and 5% normal goat serum in 1×PBS for 1 h at room temperature (RT) to block non-specific bindings. Later, the samples were incubated with primary antibodies at 4° C. overnight. The dilution and product information of the primary antibodies were as follows: OCT-4 (1:500 dilution, Cell Signaling Technologies), NANOG (1:500 dilution, Cell Signaling Technologies), SSEA-4 (1:500 dilution, Cell Signaling Technologies), cTnT (1:500 dilution, Cell Signaling Technologies), CONNEXIN-43 (CX-43, 1:400 dilution, Santa Cruz Biotechnology), DESMIN (1:500 dilution, Santa Cruz Biotechnology), α-ACTININ (1:500 dilution; Santa Cruz Biotechnology), BRACHYURY (1:500; Santa Cruz Biotechnology), NKX2.5 (1:500; Santa Cruz Biotechnology), NESTIN (1:500; R & D Systems), MUSASHI-1 (1:500; R & D Systems), and TUJ-1 (1:500; R & D Systems). Afterward, the samples were rinsed with 1×PBS thrice and then incubated with the associated secondary antibodies (goat anti-rabbit IgG FITC and goat-anti-mouse IgG PE, Invitrogen) in 1×PBS for 1.5 h at RT. Lastly, the samples were rinsed with 1 ml of 1×PBS for 3 min and the nuclei were stained with 1 μg/ml DAPI solution for 5 min at RT. The samples were imaged with the Zeiss LSM 710 microscope.

The subject of a further assay is eiPSC spheroids. Nature of the assay: Teratoma assay of eiPSC spheroids injected subcutaneously into NOD/SCID mice. Format: in vivo. Conditions: eiPSC spheroids from 1 and 10 μM RI groups, day 0, s.c. in NOD/SCID mice. How it is done:
To test the pluripotency of the cells in the 3D iPSC spheroids in vivo with the teratoma assay, the eiPSC spheroids were directly injected subcutaneously (s.c.) into the dorsal rear flank of severe combined immunodeficient mice (NOD.CB17-scid). A total of 2×10^6 cells in 300 μL of PBS was injected into each mouse (age: 5 weeks, and 5 mice per group). After 5 weeks, the mice were sacrificed, and the resulting teratoma were collected and fixed in 4% paraformaldehyde (PFA) for 3 days. Afterward, the samples were cut into small pieces of ˜0.5 cm^3, embedded in paraffin, and sectioned into slices of 5 μm thick. The slices were stained with hematoxylin and eosin (H&E) and imaged with a Zeiss LSM 710 microscope. All animal studies were approved by the Institutional Animal Care and Use Committee (IACUC, #R-MAY-18-24) at the University of Maryland, College Park.

The test system of assay [1] is human eiPSCs (DF19-9-11T.H). Nature of the assay: 3D suspension culture of eiPSC spheroids with Rock inhibitor (morphology, size, cells per spheroid). Conditions: day −3. Format: cell-based. How it is done: The timeline for the 4-day (from day −4 to 0) 3D culture and the subsequent 3D cardiac differentiation of iPSCs is illustrated in FIG. 1B. First, 3D eiPSC spheroids were obtained for 3D cardiac differentiation, for which the eiPSC colonies from 2D culture were detached and mechanically cut with a cell strainer (100 μm mesh size) into small iPSC clumps for suspension culture in the mTeSR medium for 4 days. Methylcellulose was added into the medium to enhance the medium viscosity and reduce fusion of the eiPSC clumps/spheroids during the suspension culture. During the first two days of 3D culture, the medium was supplemented with 1 μM RI (low RI) or 10 μM RI (high RI that has been commonly used for improving the survival/yield of human PSCs including iPSCs during culture), and no RI was used during the last two days of culture. […]
To obtain 3D iPSC spheroids, the iPSC colonies under 2D culture at ˜80% confluence were treated with Versene for 2 min, rinsed with PBS, and further detached from the substrate by gentle pipetting. […] The dissociated cells were then resuspended in 1.4 ml of the aforementioned iPSC maintenance medium and the cell number was counted using a hemocytometer. […]

Take `C[C@@H](N)[C@H]1CC[C@H](C(=O)Nc2ccncc2)CC1.Cl.Cl` (relative stereo) [RI, (+)-(R)-trans-4-(1-aminoethyl)-N-(4-pyridyl) cyclo-hexanecarboxamide dihydrochloride]: the “expression of cTnT and CX-43” value is “high with an evident expression of the gap junction protein CX-43” in the assay with IMR90-1 human iPSCs (1 μM RI); “low and negligible, respectively” in the assay on IMR90-1 human iPSCs (10 μM RI). The “immunostaining of neural markers MUSASHI and TUJ-1” value in the assay with IMR90-1 human iPSCs (1 μM RI) was “negligible”; in the assay with IMR90-1 human iPSCs (10 μM RI), “existence of MUSASHI- and TUJ-1-positive cells”. In addition, in the assay on eiPSC spheroids, the “teratoma formation (pluripotency in vivo)” value was “forming teratomas consisting of tissues from all the three germ layers”. Also, the “morphology of eiPSC spheroids” value is listed as “remain solid-like” in assay [1] (1 μM RI) and “evident core-shell morphology with a cavity-like core” in assay [1] (10 μM RI).

For the origin of these results see US20230035127A1, “CULTURE AND DIFFERENTIATION OF PLURIPOTENT STEM CELLS” (University of Maryland, College Park, priority 2021, published 2023).
